Experimental data from patent US7422862B2, “Methods for identifying modulators of apoptosis” (The Burnham Institute, priority 2001, dated 2008).
d = 2'-deoxy (DNA); r = 2'-OH (RNA)

How the values were obtained:
Type in all cases: cell-based
SF268 cells = assay: STS-induced apoptosis in siRNA-transfected SF268 cells; settings: 0.1 μM STS 8 hrs
Procedure: (§1) (A-D) CMS14.1 neuronal cells were transfected with plasmids encoding Flag-HN peptide or Flag-control (27-amino-acid) peptide, together with GFP-encoding plasmid at 4:1 ratio. Cells were either cultured without further treatment (open bars) or subjected to various apoptotic stimuli for various times (dark bars), including (A) STS for 8 h (dark symbols=Flag-control; open symbols=Flag-HN), (B) Serum-deprivation for 72 h, (C) 10 joules/m2 Uvirradiation followed by 24 h culture, and (D) 50 ng/ml TNFa in […] for 24 h. Cells were then fixed and stained with DAPI to determine the percentage of apoptotic cells, evaluating=200 GFP-positive cells per sample (mean±SD; n=3). (inset) Lysates prepared from replicate cultures of transfected cells were normalized for total protein content and analyzed by immunoblotting using anti-Flag (top) and anti-tubulin (bottom) antibodies, confirming production of similar amounts of Flag-control and Flag-HN peptides. […] (Upper panel) After 72 hr, cell lysates were prepared and 100 ug was analyzed by immunoblotting using anti-HN and anti-tubulin (as a loading control) antibodies. (Lower panel) At 72 hr after siRNA transfection, SF268 cells were cultured with 0.1 μM STS for 8 hrs, then % apoptosis was determined (mean+std dev; n=3). […] Apoptosis (%) was measured 48 hrs later among GFP-positive cells. […]

endogenous Humanin = assay: siRNA knock-down of endogenous Humanin in SF268 cells (immunoblotting)
Procedure: as §1

endogenous Bax protein = assay: Subcellular fractionation and immunoblot of endogenous Bax after STS; settings: SF268 cells, Humanin knocked-down by siRNA
Procedure: (A-B) Humanin peptide prevents STS-induced Bax translocation in vivo. Cos-7 cells were first transfected with GFP-Bax plasmids. After 24 hrs, untagged wild-type or C8P mutant Humanin peptides were introduced into cells using ChariotTM reagent, and 2 h later cells were treated with 1 μM STS. After 4 h, the percentage of cells with translocated Bax was determined (mean±SD; n=3) by confocal microscopy (A) and representative photomicrographs (B). (C) Wild-type or C8P mutant Humanin peptides were introduced into Cos7 cells using ChariotTM reagent. Cytosolic (C) and mitochondria-containing (M) fractions were isolated by differential centrifugation 23 and analyzed by immunoblotting using anti-Bax (top), Hsp60 (middle) (mitochondrial marker), or Tubulin (bottom) (cytosol marker) antibodies. (D) HN or mutant control double-strand siRNAs were transfected into SF268 cells. After 48 h, cells were cultured without (Control) or with 0.1 uM STS. After 24 hr, cells were fractionated and analyzed by immunoblotting as above. […] After 3 h at 30° C., mitochondria were centrifuged and the resulting pellets (P) and supernatants (S) were analyzed by immunoblotting using anti-Cytochrome c (top), Hsp60 (middle), and Bax (bottom) antibodies. […]
These findings were also confirmed by subcellular fractionation, where cytosol and mitochondria-enriched heavy membrane preparations were prepared from Cos7 cells transduced with untagged Humanin or Humanin(C8P) peptides, and the relative amounts of endogenous Bax protein in these two fractions were measured by immunoblot analysis of samples normalized for cell-equivalents. […] Differences in the relative potency of Humanin at blocking Bax translocation as measured by microscopy (FIG. 7A) versus cell fractionation methods (FIG. 7C) can be explained by differences in the sensitivity of the assays, or could possibly indicate that even in cells where some Bax translocation has occurred, less of the total Bax protein associated with mitochondria. […]

## Humanin siRNA: double-strand siRNA, sense r(CCAGUGAAAUUGACCUGCC)d(TT), SEQ ID NO:25/26 (sense CCAGUGAAAUUGACCUGCCNN; antisense GGCAGGUCAAUUUCACUGGNN; sugars from the 5' end r19 d2, backbone and the base at N not given here)
SF268 cells
  sensitivity to STS-induced apoptosis: increased
Endogenous Humanin
  endogenous levels of Humanin peptide: reduced
Endogenous Bax protein
  STS-induced translocation of Bax to membranes: enhanced
